molecular target: T1, hP2X3 (human Purinergic P2X receptors subtype 3), clone B (Homo sapiens, UniProt P56373); assay: hP2X3 FLIPR calcium (Fluo-4) antagonist assay, clone B; conditions: Human P2X3 FLIPR Clone B IC50 (nM), RLE cells expressing hP2X3 clone B (NM_002559); agonist 500 nM α,β-methylene-ATP
T1 sequence (P56373 1-397): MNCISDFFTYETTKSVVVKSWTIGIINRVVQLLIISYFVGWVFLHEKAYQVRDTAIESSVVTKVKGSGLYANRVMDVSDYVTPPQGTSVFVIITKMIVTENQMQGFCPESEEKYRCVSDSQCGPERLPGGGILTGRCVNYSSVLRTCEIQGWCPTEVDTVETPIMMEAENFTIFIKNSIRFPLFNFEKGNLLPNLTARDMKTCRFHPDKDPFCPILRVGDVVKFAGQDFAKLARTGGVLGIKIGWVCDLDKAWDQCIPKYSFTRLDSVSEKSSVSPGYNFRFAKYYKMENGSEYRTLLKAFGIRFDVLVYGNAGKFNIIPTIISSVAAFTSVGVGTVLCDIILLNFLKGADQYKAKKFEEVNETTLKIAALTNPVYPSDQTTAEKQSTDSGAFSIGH

| Compound | IC50 [nM] |
| --- | --- |
| CC(=O)N1CCN(c2nc3c(c(N4CCCC4Cc4ccc(Cl)cc4)n2)CN(C(C)C)C3=O)CC1 (centres unmarked) [Example 50, 2-(4-acetylpiperazin-1-yl)-4-[2-(4-chlorobenzyl)pyrrolidin-1-yl]-6-isopropyl-5,6-dihydro-7H-pyrrolo[3,4-d]pyrimidin-7-one] | 150 |
| CC(C)N1Cc2c(NCC(c3ccccc3)c3ccccc3)nc(NCCCN(C)C)nc2C1=O [Example 108, 2-(3-Dimethylamino-propylamino)-4-(2,2-diphenyl-ethylamino)-6-isopropyl-5,6-dihydro-pyrrolo[3,4-d]pyrimidin-7-one] | 4400 |
| CC(=O)N1CCN(c2nc3c(c(N(C)Cc4ccc(Cl)cc4)n2)CN(C(C)C)C3=O)CC1 [Example 111, 2-(4-acetylpiperazin-1-yl)-4-[(4-chlorobenzyl)(methyl)amino]-6-isopropyl-5,6-dihydro-7H-pyrrolo[3,4-d]pyrimidin-7-one] | 9000 |
| CC(=O)N1CCN(c2nc3c(c(N4CCCCC4Cc4ccccc4)n2)CN(C(C)C)C3=O)CC1 (centres unmarked) [Example 266, 4-(4-acetylpiperazin-1-yl)-2-(2-benzyl-1-piperidyl)-8-propan-2-yl-3,5,8-triazabicyclo[4.3.0]nona-1,3,5-trien-7-one] | 1000 |
| CC(=O)N1CCN(c2nc(NC(C)c3ccc(C(F)(F)F)cc3)c3c(n2)C(=O)N(C(C)C)C3)CC1 (centres unmarked) [Example 28, 2-(4-acetylpiperazin-1-yl)-6-isopropyl-4-({1-[4-(trifluoromethyl)phenyl]ethyl}amino)-5,6-dihydro-7H-pyrrolo[3,4-d]pyrimidin-7-one] | 200 |
| CC(=O)N1CCN(c2nc(NCc3ccc(-c4ccccc4)nc3)c3c(n2)C(=O)N(C(C)C)C3)CC1 [Example 228, 2-(4-acetylpiperazin-1-yl)-6-isopropyl-4-((6-phenylpyridin-3-yl)methylamino)-5H-pyrrolo[3,4-d]pyrimidin-7(6H)-one] | 8800 |
| CC(C)N1Cc2c(NCc3cnc4ccccc4c3)nc(N3CCN(C(=O)N(C)C)CC3)nc2C1=O [Example 221, N,N-dimethyl-4-{6-(1-methylethyl)-7-oxo-4-[(quinolin-3-ylmethyl)amino]-6,7-dihydro-5H-pyrrolo[3,4-d]pyrimidin-2-yl}piperazine-1-carboxamide] | 5800 |
| COc1cccc([C@@H](C)Nc2nc(N3CCN(C(C)=O)CC3)nc3c2CN(C(C)C)C3=O)c1 [Example 227, (R)-2-(4-acetylpiperazin-1-yl)-6-isopropyl-4-(1-(3-methoxyphenyl)ethylamino)-5H-pyrrolo[3,4-d]pyrimidin-7(6H)-one] | 8500 |
| CC(C)CN1Cc2c(NC(c3ccccc3)c3ccccc3)nc(N3CCOCC3)nc2C1=O [Example 73, 4-(Benzhydryl-amino)-6-isobutyl-2-morpholin-4-yl-5,6-dihydro-pyrrolo[3,4-d]pyrimidin-7-one] | 3800 |
| CC(C)N1Cc2c(NC(c3ccccc3)c3ccccc3)nc(NCc3ccccc3)nc2C1=O [Example 84, 4-(Benzhydryl-amino)-2-benzylamino-6-isopropyl-5,6-dihydro-pyrrolo[3,4-d]pyrimidin-7-one] | 830 |
| CCOc1ccc([C@@H](C)Nc2nc(N3CCN(C(C)=O)CC3)nc3c2CN(C(C)C)C3=O)cc1C [Example 167, (R)-2-(4-acetylpiperazin-1-yl)-4-(1-(4-ethoxy-3-methylphenyl)ethylamino)-6-isopropyl-5H-pyrrolo[3,4-d]pyrimidin-7(6H)-one] | 65 |
| CC(C)N1Cc2c(NCc3cnc4ccccc4c3)nc(NCCS(C)(=O)=O)nc2C1=O [Example 215, 6-isopropyl-2-(2-methylsulfonylethylamino)-4-(3-quinolylmethylamino)-5H-pyrrolo[3,4-d]pyrimidin-7-one] | 2000 |
| CC(=O)N1CCN(c2nc(NCCc3ccc(C)cc3C)c3c(n2)C(=O)N(C(C)C)C3)CC1 [Example 56, 2-(4-acetylpiperazin-1-yl)-4-{[2-(2,4-dimethylphenyl)ethyl]amino}-6-isopropyl-5,6-dihydro-7H-pyrrolo[3,4-d]pyrimidin-7-one] | 2700 |
| CC(=O)N1CCN(c2nc(NCc3ccc(C(C)C)cc3)c3c(n2)C(=O)N(C(C)C)C3)CC1 [Example 43, 2-(4-acetylpiperazin-1-yl)-6-isopropyl-4-[(4-isopropylbenzyl)amino]-5,6-dihydro-7H-pyrrolo[3,4-d]pyrimidin-7-one] | 650 |
| CC(=O)N1CCN(c2nc3c(c(N4CCC[C@@H]4C(=O)NC4CCCCC4)n2)CN(C(C)C)C3=O)CC1 [Example 302, (2R)-1-[4-(4-acetylpiperazin-1-yl)-7-oxo-8-propan-2-yl-3,5,8-triazabicyclo[4.3.0]nona-1,3,5-trien-2-yl]-N-cyclohexyl-pyrrolidine-2-carboxamide] | 3100 |
| CC(=O)N1CCN(c2nc(N[C@H](C)c3ccc(C(C)(C)C#N)cc3)c3c(n2)C(=O)N(C(C)C)C3)CC1 [Example 161, (R)-2-(4-(1-(2-(4-acetylpiperazin-1-yl)-6-isopropyl-7-oxo-6,7-dihydro-5H-pyrrolo[3,4-d]pyrimidin-4-ylamino)ethyl)phenyl)-2-methylpropanenitrile] | 720 |
| CC(=O)N1CCN(c2nc(NC(C)c3ccc(Cl)cc3)c3c(n2)C(=O)N(C(C)C)C3)CC1 (centres unmarked) [Example 53, 2-(4-acetylpiperazin-1-yl)-4-{[1-(4-chlorophenyl)ethyl]amino}-6-isopropyl-5,6-dihydro-7H-pyrrolo[3,4-d]pyrimidin-7-one] | 750 |
| CC(=O)N1CCN(c2nc3c(c(N4CCCC4Cc4ccc(F)cc4)n2)CN(C(C)C)C3=O)CC1 (centres unmarked) [Example 129, 2-(4-Acetylpiperazin-1-yl)-4-[2-(4-fluorobenzyl)-pyrrolidin-1-yl]-6-isopropyl-5H-pyrrolo[3,4-d]pyrimidin-7(6H)-one] | 150 |
| CC(=O)N1CCN(c2nc(NCc3cc(C(C)(C)C)[nH]n3)c3c(n2)C(=O)N(C(C)C)C3)CC1 [Example 143, 4-(4-acetylpiperazin-1-yl)-8-propan-2-yl-2-[(5-tert-butyl-1H-pyrazol-3-yl)methylamino]-3,5,8-triazabicyclo[4.3.0]nona-1,3,5-trien-7-one] | 160 |
| CC(=O)N(Cc1cc2ccccc2cn1)c1nc(N2CCN(C(C)=O)[C@H](C)C2)nc2c1CN(C(C)C)C2=O [Example 326, (R)—N-(2-(4-acetyl-3-methylpiperazin-1-yl)-6-isopropyl-7-oxo-6,7-dihydro-5H-pyrrolo[3,4-d]pyrimidin-4-yl)-N-(isoquinolin-3-ylmethyl)acetamide] | 590 |
| CCC(C)N1Cc2c(NC(C)(C)Cc3ccc(F)cc3)nc(N3CCN(C(C)=O)CC3)nc2C1=O (centres unmarked) [Example 312, 2-(4-acetylpiperazin-1-yl)-6-sec-butyl-4-(1-(4-fluorophenyl)-2-methylpropan-2-ylamino)-5H-pyrrolo[3,4-d]pyrimidin-7(6H)-one] | 160 |
| CC(=O)N1CCN(c2nc(N[C@H](C)c3ccccc3C(F)(F)F)c3c(n2)C(=O)N(C(C)C)C3)CC1 [Example 226, (R)-2-(4-acetylpiperazin-1-yl)-6-isopropyl-4-(1-(2-(trifluoromethyl)phenyl)ethylamino)-5H-pyrrolo[3,4-d]pyrimidin-7(6H)-one] | 4400 |
| CC(=O)N1CCN(c2nc(NC3CCc4cc(Cl)ccc43)c3c(n2)C(=O)N(C(C)C)C3)CC1 (centres unmarked) [Example 133, 2-(4-Acetylpiperazin-1-yl)-4-(5-chloro-2,3-dihydro-1H-inden-1-ylamino)-6-isopropyl-5H-pyrrolo[3,4-d]pyrimidin-7(6H)-one] | 4200 |
| CC(=O)NCCNc1nc(NC(c2ccccc2)c2ccccc2)c2c(n1)C(=O)N(C(C)C)C2 [Example 93, N-{2-[4-(Benzhydryl-amino)-6-isopropyl-7-oxo-6,7-dihydro-5H-pyrrolo[3,4-d]pyrimidin-2-ylamino]-ethyl}-acetamide] | 290 |
| CC(=O)N1CCN(c2nc(NC(C)(C)Cc3ccccc3C)c3c(n2)C(=O)N(C(C)C)C3)CC1 [Example 197, 2-(4-acetylpiperazin-1-yl)-6-isopropyl-4-(2-methyl-1-o-tolylpropan-2-ylamino)-5H-pyrrolo[3,4-d]pyrimidin-7(6H)-one] | 1900 |
| CCN1CCN(c2nc(NC(c3ccccc3)c3ccc(Cl)cc3)c3c(n2)C(=O)N(C(C)C)C3)CC1 (centres unmarked) [Example 18, 4-{[(4-chlorophenyl)(phenyl)methyl]amino}-2-(4-ethylpiperazin-1-yl)-6-isopropyl-5,6-dihydro-7H-pyrrolo[3,4-d]pyrimidin-7-one] | 180 |
| CNCCNc1nc(NCC(c2ccccc2)c2ccccc2)c2c(n1)C(=O)N(C(C)C)C2 [Example 109, 4-(2,2-Diphenyl-ethylamino)-6-isopropyl-2-(2-methylamino-ethylamino)-5,6-dihydro-pyrrolo[3,4-d]pyrimidin-7-one] | 7200 |
| CC(C)N1Cc2c(NCc3cnc4ccccc4c3)nc(N3CCOCC3)nc2C1=O [Example 211, 6-isopropyl-2-morpholino-4-(quinolin-3-ylmethylamino)-5H-pyrrolo[3,4-d]pyrimidin-7(6H)-one] | 5100 |
| CCC(C)N1Cc2c(NCc3cc4ccccc4cn3)nc(N3CCN(C(C)=O)CC3)nc2C1=O (single isomer, unassigned; (+)) [Example 310, (+)-2-(4-acetylpiperazin-1-yl)-4-(3-isoquinolylmethylamino)-6-sec-butyl-5H-pyrrolo[3,4-d]pyrimidin-7-one] | 29 |

— patent US20090099195A1 (ASTRAZENECA AB, priority 2007, published 2009)
